Test results: US8563503B2, “Antibiotic, its nucleotide sequence, methods of construction and uses thereof” (Protein Design Lab. Ltd., priority 2011, dated 2013)

Experiments:
[1] = tested on: Enterococcus ATCC 700802; assay: Protection test in vivo (intravenous injection) of infected mice; design: species or system Kungming mice; conditions: mice, infected with 7.0 × 10^6 cfu/ml i.p., drug once intravenous
Procedure: (§1) The drugs used in this embodiment were same with that used in embodiment 4.
(§2) The above drugs were dissolved and diluted by sterilized water, and the injection concentrations of each drug were 10 mg/kg, 5 mg/kg and 2.5 mg/kg.
(§3) After given intraperitoneal injection of fatal dose of above-mentioned bacteria, the mice of each drug experimental group respectively were given once intravenous injection of the drug by 10 mg, 5 mg, 2.5 mg/kg. The results were observed per 24 hours for 7-14 days. The positive result is mice's death.

[2] = tested on: Staphylococcus aureus ATCC 29213; assay: as above; design: species or system Kungming mice; conditions: mice, infected with 4.6 × 10^5 cfu/ml i.p., drug once intravenous
Procedure: as §1, §2, §3

[3] = tested on: E. coli 02-1-65; assay: as above; design: species or system Kungming mice; conditions: mice, infected with 3.8 × 10^5 cfu/ml i.p., drug once intravenous
Procedure: as §1, §2, §3

[4] = tested on: Staphylococcus aureus MRSA BAA-42; assay: as above; design: species or system Kungming mice; conditions: mice, infected with 6.5 × 10^5 cfu/ml i.p., drug once intravenous
Procedure: as §1, §2, §3

[5] = tested on: Enterococcus; assay: MIC by Agar Doubling Dilution Method, clinical isolates; type: cell-based, Enterococcus faecalis; conditions: Enterococcus clinical strains
Procedure: (§4) (3) Culture Solution • MH Broth Culture Solution: 25 g was added into […] distilled water, heat to dissolve, subpackaged, autoclaved at 116° C. for 20 minutes, and MH Solid Culture Medium, 36 g was added into 1000 ml distilled water, autoclaved at 116° C. for 20 minutes, used for drug sensitive test of Gram-positive and negative aerobic bacteria. • Blood culture solution for Enterococcus faecalis, which was prepared by adding defibration rabbit blood into the MH culture solution by 5-10% and cultured at 37° C. in 5% CO2 for 24 hours. 2. Experimental Methods (1) The Measurement of Minimum Inhibitory Concentration (MIC) • The Minimum Inhibitory Concentration (MIC) of PMC-SA1 was measured by Agar Doubling Dilution Method. The bacterium was inoculated on the surface of agar plate containing different concentration of drugs by multipoint inoculate instrument (Deneley A400). The bacterial content per point was 10^5 CFU/ml. After incubated at 37° C. for 18-24 hours, the result can be observed. The least concentration of drugs in plate culture solution without bacterium growing was Minimum Inhibitory Concentration (MIC) of the drug to the said bacteria. 3. Results

[6] = tested on: E. coli; assay: as above; type: cell-based; conditions: E. coli clinical strains
Procedure: as §4

[7] = tested on: Baumanii; assay: as above; type: cell-based; conditions: Baumanii clinical strains
Procedure: as §4

[8] = tested on: Staphylococcus aureus (MSSA); assay: as above; type: cell-based; conditions: MSSA clinical strains
Procedure: as §4

[9] = tested on: Staphylococcus epidermidis (MRSE); assay: as above; type: cell-based; conditions: MRSE clinical strains
Procedure: as §4

[10] = tested on: Staphylococcus aureus (MRSA); assay: as above; type: cell-based; conditions: MRSA clinical strains
Procedure: as §4

[11] = tested on: Staphylococcus epidermidis (MSSE strain); assay: as above; type: cell-based; conditions: MSSE clinical strains
Procedure: as §4

[12] = tested on: Staphylococcus aureus ATCC 29213; assay: MIC against the infecting strain (Table 2); type: cell-based; conditions: ATCC29213
Procedure: as §4

[13] = tested on: E. coli 02-1-65; assay: MIC against the infecting strain (Table 2); type: cell-based; conditions: E. coli 02-1-65
Procedure: as §4

[14] = tested on: Staphylococcus aureus MRSA BAA-42; assay: MIC against the infecting strain (Table 2); type: cell-based; conditions: Staphylococcus aureus MRSA BAA-42
Procedure: as §4

[15] = tested on: Enterococcus ATCC 700802; assay: MIC against the infecting strain (Table 2); type: cell-based, Enterococcus faecalis; conditions: ATCC700802
Procedure: as §4

[16] = tested on: methicillin-resistant Staphylococcus aureus (ATCC BAA-42); assay: Transmission electron microscope observation of bactericidal effect; type: cell-based; conditions: oxacillin 500 μg/ml, […]
Procedure: Transmission Electron Microscope Observations of the Bactericidal Effect of the Novel Antibiotic PMC-SA1 on Methicillin-Resistant Staphylococcus aureus (ATCC BAA-42) (Dyed by 1% Phospho-Wolframic Acid, Magnified by 25,000 Fold)
Culture solution: 1% tryptone, 1% NaCl, 0.5% yeast extract, 0.5% glucose, 0.1% K2HPO4.
Con: control group, the bacterium was added to the above culture solution and proper amount of 0.3 M NaCl+50 mM boric acid buffer solution, 200 rpm, grew at 37° C. for 2 hours, and the bacterial appearance was still regular;
PMC: the bacterium was added to the above culture solution with 10 μg/ml PMC-SA1 for 0.5 hours.

[17] = tested on: methicillin-resistant Staphylococcus aureus ATCC BAA-42; assay: Bacteria growth curve (A595 nm), comparison of the novel antibiotics; type: cell-based; conditions: drug 5 μg/ml, 37° C., A595 nm per hour
Procedure: The following experiment was set for comparing bacteriostasis effects of 6 kinds of the novel antibiotics. The experimental bacteriaum was United States Standard Strain methicillin-resistant Staphylococcus aureus ATCC BAA-42. 5 microliter of bacteria solution (10^6 CFU/ml level bacterium amount) was added into 10 ml culture solution containing 1% peptone, 1% NaCl, 0.5% yeast extract, 0.5% glucose and 0.1% K2HPO4, total of 8 groups were prepared. The first group as control was added 0.3 M NaCl+50 mM boric acid buffer fluid by the same volume as that of antibiosis polypeptide liquid added in any experimental groups, the second group was added penicillin G sodium by 5 μg/ml, PMC-SA1, PMC-SA2, PMC-SA3, PMC-SA4, PMC-SE and PMC-PA were added in the other experimental groups with preservative fluid being 0.3 M NaCl+50 mM boric acid buffer fluid by 5 ug/ml.
(§5) The solution of above groups was put into 100 ml conical flask, 200 rpm, grew at 37° C. 100 μl was sampled per hour, and added onto 96-pore ELISA plate and measured bacteria grown cloudiness by spectrophotometer (A595 nm) color comparison. The bacteria growth curve was drawn up to compare the bacteriostasis efficacy of antibiosis polypeptide.

[18] = tested on: Multiple-drug resistance Pseudomonas aeruginosa (clinical separated strain 13280); assay: In vivo protection of mice infected by multiple-drug resistance Pseudomonas aeruginosa; design: species or system Kungming mice; conditions: 5 mg/kg intravenous, fatal dose i.p.
Description: (1) Drugs • PMC-PA, piperacillin, amikacin, ceftazidime, levofloxacin.
Multiple-drug resistance Pseudomonas aeruginosa (clinical separated strain 13280, isolated by laboratory bacteria room of West China Hospital)
Kungming mice (n=60), half male and half female, weighing 15-20 g were given intraperitoneal injection of multiple-drug resistance Pseudomonas aeruginosa, therein PMC-PA, piperacillin, amikacin, ceftazidime and levofloxacin experimental group were set respectively as 10 mice per group, while the control group was set as 10 mice per group. After given intraperitoneal injection of fatal dose of the bacterium, the mice in drug experimental groups respectively were given an intravenous injection of one kind of above drugs, the results were observed per 24 hours for continuous 10 days. The positive result was mouse's death.

[19] = tested on: Pseudomonas aeruginosa Standard Strain (ATCC 27853); assay: Bacteria growth curve (A595 nm cloudiness), Pseudomonas aeruginosa; type: cell-based; conditions: drug 5 μg/ml, 37° C., A595 nm per hour
Procedure: The experimental bacterium was Pseudomonas aeruginosa Standard Strain (ATCC 27853) purchased from the Center for General Microorganism of the Administration (CGMCC). 5 microliter bacteria solution (10^6 CFU/ml level bacterium amount) was added into 10 ml MH culture solution. Seven groups are prepared. 0.3 M NaCl+50 mM boric acid buffer fluid which amount was identical to amount of antibiosis polypeptide liquid in the experimental group was added as control in the first group, 5 μg/ml wild-type colicin Ia was added in the second group, 5 μg/ml PMC-SA1 was added in the third group, and 5 μg/ml PMC-PA was added in the fourth group.
as §5, with “Liquid in the” for “The solution of”, “96-hole Elisa Plate to measure” for “96-pore ELISA plate and measured”

CC1(C)S[C@@H]2[C@H](NC(=O)[C@H](N)c3ccccc3)C(=O)N2[C@H]1C(=O)[O-].[Na+] [Ampicillin, Ampicillin Sodium]
ED50 [1]: 3.00 mg/kg | ED50 [2]: 14.05 mg/kg | ED50 [3]: >32 mg/kg | ED50 [4]: 25.41 mg/kg | MIC50 [5]: 0.5 µg/mL | MIC90 [5]: 16 µg/mL | Scope of MIC [5]: 0.25 to 16 µg/mL | MIC50 [6]: >128 µg/mL | MIC90 [6]: >128 µg/mL | MIC50 [7]: >128 µg/mL | MIC90 [7]: >128 µg/mL | MIC50 [8]: 0.25 µg/mL | MIC90 [8]: 1 µg/mL | Scope of MIC [8]: <0.015-0.025 ^ mg/L | MIC50 [9]: 16 µg/mL | MIC90 [9]: 64 µg/mL | Scope of MIC [9]: 0.06 to 64 µg/mL | MIC50 [10]: 16 µg/mL | MIC90 [10]: 32 µg/mL | Scope of MIC [10]: 0.06 to 64 µg/mL | MIC50 [11]: 0.03 µg/mL | MIC90 [11]: 0.25 µg/mL | MIC [12]: 1.5 µg/mL | MIC [13]: >128 µg/mL | MIC [14]: 16 µg/mL | MIC [15]: 2.5 µg/mL

Cc1onc(-c2ccccc2)c1C(=O)N[C@@H]1C(=O)N2[C@@H]1SC(C)(C)[C@@H]2C(=O)[O-].[Na+] [Oxacillin, Oxacillin Sodium]
bactericidal effect, bacterial appearance under transmission electron microscope [16]: the colour as well as appearance of the bacterium had changed, but the thallus was still integrated | bactericidal effect, bacterial appearance under transmission electron microscope ([16]; listed as oxacillin): the appearance of bacterium had changed, but thallus were still integrative | MIC50 [5]: 16 µg/mL | bacteriostasis effect on growth of methicillin-resistant Staphylococcus aureus (bacteria growth curve) [17]: can hardly be restrained | MIC50 [8]: 0.125 µg/mL | MIC90 [8]: 0.125 µg/mL | Scope of MIC [8]: <0.015-0.25 ^ mg/L | MIC50 [9]: 64 µg/mL | MIC50 [11]: 0.03 µg/mL | MIC90 [11]: 0.125 µg/mL | Scope of MIC [11]: <0.125-0.25 ^ mg/L

B1: PMC-PA: Staphylococcus aureus pheromone AgrD I connected to N-terminus of allosteric colicin Ia′; SEQ ID NO. 23; plasmid pBHC-PA (protein)
chain: YSTCDFIMSDPVRITNPAAESLGYDSDGREIMGVDIYLNPPRVDVFKGTPPAWSSFGNKTIWGGNEWVDDSPTRSDIEKRDKEITAYKNTLSAQQKENENKRTEAGKRLSAAIAAREKDENTLKTLRAGNADAADITRQEFRLLQAELREYGFRTEIAGYDALRLHTESRMLFADADSLRISPREARSLIEQAEKRQKDAQNADKKAADMLAEYERRKGILDTRLSELEKNGGAALAVLDAQQARLLGQQTRNDRAISEARNKLSSVTESLNTARNALTRAEQQLTQQKNTPDGKTIVSPEKFPGRSSTNHSIVVSGDPRFAGTIKITTSAVIDNRANLNYLLSHSGLDYKRNILNDRNPVVTEDVEGDKKIYNAEVAEWDKLRQRLLDARNKITSAESAVNSARNNLSARTNEQKHANDALNALLKEKENIRNQLSGINQKIAEEKRKQDELKATKDAINFTTEFLKSVSEKYGAKAEQLAREMAGQAKGKKIRNVEEALKTYEKYRADINKKINAKDRAAIAAALESVKLSDISSNLNRFSRGLGYAGKFTSLADWITEFGKAVRTENWRPLFVKTETIIAGNAATALVALVFSILTGSALGIIGYGLLMAVTGALIDESLVEKANKFWGI
modifications: The peptide of PMC-SA
notes: Staphylococcus aureus pheromone AgrD I connected to N-terminus of allosteric colicin Ia′; 23; plasmid pBHC-PA
survival rate of mice in 10 days [18]: 100% | growth of Pseudomonas aeruginosa (bacteria growth curve) [19]: completely restrained | growth of Pseudomonas aeruginosa (bacteria growth curve) ([19]; listed as SEQ ID NO. 23): has antibacterial effect on Pseudomonas aeruginosa | bacteriostasis effect on growth of methicillin-resistant Staphylococcus aureus (bacteria growth curve) [17]: the worst

B2: wild-type colicin Ia: wild-type bacterial toxin colicin Ia secreted by E. coli (protein, UniProt P06716 1-626, looked up)
Colicin-Ia: MSDPVRITNPGAESLGYDSDGHEIMAVDIYVNPPRVDVFHGTPPAWSSFGNKTIWGGNEWVDDSPTRSDIEKRDKEITAYKNTLSAQQKENENKRTEAGKRLSAAIAAREKDENTLKTLRAGNADAADITRQEFRLLQAELREYGFRTEIAGYDALRLHTESRMLFADADSLRISPREARSLIEQAEKRQKDAQNADKKAADMLAEYERRKGILDTRLSELEKNGGAALAVLDAQQARLLGQQTRNDRAISEARNKLSSVTESLNTARNALTRAEQQLTQQKNTPDGKTIVSPEKFPGRSSTNHSIVVSGDPRFAGTIKITTSAVIDNRANLNYLLSHSGLDYKRNILNDRNPVVTEDVEGDKKIYNAEVAEWDKLRQRLLDARNKITSAESAVNSARNNLSARTNEQKHANDALNALLKEKENIRNQLSGINQKIAEEKRKQDELKATKDAINFTTEFLKSVSEKYGAKAEQLAREMAGQAKGKKIRNVEEALKTYEKYRADINKKINAKDRAAIAAALESVKLSDISSNLNRFSRGLGYAGKFTSLADWITEFGKAVRTENWRPLFVKTETIIAGNAATALVALVFSILTGSALGIIGYGLLMAVTGALIDESLVEKANKFWGI
growth of Pseudomonas aeruginosa (bacteria growth curve) [19]: can not be effectively restrained
